# Laboratory results: patent US9556179B2 (BRISTOL-MYERS SQUIBB COMPANY, priority 2012, dated 2017)
# How the values were obtained:
# CK1δ = CK1δ (Homo sapiens (Human), UniProt P48730); assay: CK1δ kinase assay (Caliper LABCHIP electrophoretic separation of fluoresceinated peptide substrate and product); type: biochemical; conditions: 200 pM enzyme, 50 μM ATP, 22 hours at room temperature
# Outline: (§1)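 Kinase reactions ran 22 h at room temperature, were stopped with EDTA, and phosphorylated product was separated electrophoretically from unphosphorylated fluoresceinated peptide. Compounds were tested at eleven concentrations from 10 mM DMSO stocks. IC50 by non-linear regression.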
# CK1ε = CK1ε (Homo sapiens (Human), UniProt P49674); assay: CK1ε kinase assay (Caliper LABCHIP electrophoretic separation of fluoresceinated peptide substrate and product); type: biochemical; conditions: 200 pM enzyme, 50 μM ATP, 22 hours at room temperature
# Outline: as §1
# CK1δ, sequence (P48730 whole entry): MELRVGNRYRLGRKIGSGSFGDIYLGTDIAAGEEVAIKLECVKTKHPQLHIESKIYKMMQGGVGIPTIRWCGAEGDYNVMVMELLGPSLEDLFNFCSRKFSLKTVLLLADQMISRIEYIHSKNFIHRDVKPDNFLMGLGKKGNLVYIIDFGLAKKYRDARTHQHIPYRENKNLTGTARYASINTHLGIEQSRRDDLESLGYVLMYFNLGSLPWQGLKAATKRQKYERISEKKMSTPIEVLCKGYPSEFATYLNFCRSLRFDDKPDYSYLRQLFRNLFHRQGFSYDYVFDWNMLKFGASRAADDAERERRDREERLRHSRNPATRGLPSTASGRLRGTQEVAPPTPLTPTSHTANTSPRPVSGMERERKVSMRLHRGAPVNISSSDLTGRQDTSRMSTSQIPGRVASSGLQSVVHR
# CK1ε, sequence (P49674 whole entry): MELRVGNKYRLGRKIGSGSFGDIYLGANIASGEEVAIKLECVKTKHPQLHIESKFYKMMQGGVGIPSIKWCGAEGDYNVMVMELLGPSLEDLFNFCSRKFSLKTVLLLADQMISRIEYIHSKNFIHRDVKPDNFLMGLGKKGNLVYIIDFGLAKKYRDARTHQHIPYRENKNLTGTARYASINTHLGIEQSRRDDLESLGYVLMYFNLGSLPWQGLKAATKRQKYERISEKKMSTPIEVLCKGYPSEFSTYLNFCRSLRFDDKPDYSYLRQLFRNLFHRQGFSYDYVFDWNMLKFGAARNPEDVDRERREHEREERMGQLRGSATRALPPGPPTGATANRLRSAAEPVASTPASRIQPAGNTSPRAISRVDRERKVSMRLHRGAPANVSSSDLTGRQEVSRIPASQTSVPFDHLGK
smiles,measurement,setting,value
"Cc1nc(-c2ccc(Cl)cc2)c(-c2ccc3nc(NC(=O)c4ccnc(F)c4)cn3n2)n1CC(F)F [Compound 294, N-(6-(4-(4-chlorophenyl)-1-(2,2-difluoroethyl)-2-methyl-1H-imidazol-5-yl)imidazo[1,2-b]pyridazin-2-yl)-2-fluoroiso-nicotinamide]",IC50,CK1δ,0.208 nM
same,IC50,CK1ε,4.03 nM
"O=C(Nc1cn2nc(-c3c(-c4ccc(F)cc4)ncn3C3CCN(C(=O)OC4CCOCC4)CC3)ccc2n1)c1ccnc(F)c1 [Compound 81, tetrahydro-2H-pyran-4-yl 4-(5-(2-(2-fluoroisonicotinamido)imidazo[1,2-b]pyridazin-6-yl)-4-(4-fluorophenyl)-1H-imidazol-1-yl)piperidine-1-carboxylate]",IC50,CK1δ,0.311 nM
same,IC50,CK1ε,1.63 nM
"O=C(Nc1cn2nc(-c3c(-c4ccc(F)cc4)ncn3CCN3CCOCC3)ccc2n1)c1ccnc(F)c1 [Compound 161, 2-fluoro-N-(6-(4-(4-fluorophenyl)-1-(2-morpholinoethyl)-1H-imidazol-5-yl)imidazo[1,2-b]pyridazin-2-yl) isonicotinamide]",IC50,CK1δ,0.415 nM
same,IC50,CK1ε,2.5 nM
"Cc1nc(-c2ccc(F)cc2)c(-c2ccc3nc(NC(=O)c4ccnc(F)c4)cn3n2)n1C1CCN(C[C@@H](O)C(F)(F)F)CC1 [Compound 142, (R)-2-fluoro-N-(6-(4-(4-fluorophenyl)-2-methyl-1-(1-(3,3,3-trifluoro-2-hydroxypropyl)piperidin-4-yl)-1H-imidazol-5-yl)imidazo[1,2-b]pyridazin-2-yl)isonicotinamide]",IC50,CK1δ,0.414 nM
same,IC50,CK1ε,2.55 nM
"O=C(Nc1cn2nc(-c3c(-c4ccc(F)cc4)nc(C4CC4)n3C3CCN(C(=O)c4ccon4)CC3)ccc2n1)c1ccnc(F)c1 [Compound 126, N-(6-(2-cyclopropyl-4-(4-fluorophenyl)-1-(1-(isoxazole-3-carbonyl)piperidin-4-yl)-1H-imidazol-5-yl)imidazo[1,2-b]pyridazin-2-yl)-2-fluoroisonicotinamide]",IC50,CK1δ,1.66 nM
same,IC50,CK1ε,9.02 nM
"CN1CCC(n2cnc(-c3ccc(F)cc3)c2-c2ccc3nc(NC(=O)c4ccnc5ccccc45)cn3n2)CC1 [Compound 110, N-(6-(4-(4-fluorophenyl)-1-(1-methylpiperidin-4-yl)-1H-imidazol-5-yl)imidazo[1,2-b]pyridazin-2-yl)quinoline-4-carboxamide]",IC50,CK1δ,0.65 nM
same,IC50,CK1ε,3.27 nM
"Cc1nocc1C(=O)Nc1cn2nc(-c3c(-c4ccc(F)cc4)nc(C)n3C)ccc2n1 [Compound 361, N-(6-(4-(4-fluorophenyl)-1,2-dimethyl-1H-imidazol-5-yl)imidazo[1,2-b]pyridazin-2-yl)-3-methyl-4-isoxazole-carboxamide]",IC50,CK1δ,74.8 nM
same,IC50,CK1ε,1260 nM
"CC(C)OC(=O)N1CCC(n2cnc(-c3ccc(F)cc3)c2-c2ccc3nc(NC(=O)c4ccnc(F)c4)cn3n2)CC1 [Compound 76, isopropyl 4-(5-(2-(2-fluoroisonicotinamido)imidazo[1,2-b]pyridazin-6-yl)-4-(4-fluorophenyl)-1H-imidazol-1-yl)piperidine-1-carboxylate]",IC50,CK1δ,0.251 nM
same,IC50,CK1ε,1.8 nM
"Cc1nc(-c2ccc(F)cc2)c(-c2ccc3nc(NC(=O)c4cccc5cccnc45)cn3n2)n1C [Compound 344, N-(6-(4-(4-fluorophenyl)-1,2-dimethyl-1H-imidazol-5-yl)imidazo[1,2-b]pyridazin-2-yl)-8-quinolinecarboxamide]",IC50,CK1δ,14.5 nM
same,IC50,CK1ε,113 nM
"CC(C)COC(=O)N1CCC(n2cnc(-c3ccc(F)cc3)c2-c2ccc3nc(NC(=O)c4ccnc(F)c4)cn3n2)CC1 [Compound 79, isobutyl 4-(5-(2-(2-fluoroisonicotinamido)imidazo[1,2-b]pyridazin-6-yl)-4-(4-fluorophenyl)-1H-imidazol-1-yl)piperidine-1-carboxylate]",IC50,CK1δ,0.376 nM
same,IC50,CK1ε,1.91 nM
"CC(C)CCN1CCC(n2cnc(-c3ccc(F)cc3)c2-c2ccc3nc(NC(=O)c4ccnc(F)c4)cn3n2)CC1 [Compound 32, 2-fluoro-N-(6-(4-(4-fluorophenyl)-1-(1-isopentylpiperidin-4-yl)-1H-imidazol-5-yl)imidazo[1,2-b]pyridazin-2-yl)isonicotinamide]",IC50,CK1δ,0.602 nM
same,IC50,CK1ε,10.7 nM
O=C(Nc1cn2nc(-c3c(-c4ccc(F)cc4)nc(C4CC4)n3CC(F)F)ccc2n1)c1ccnc(F)c1 [Compound 285],IC50,CK1δ,0.245 nM
same,IC50,CK1ε,1.22 nM
"O=C(Nc1cn2nc(-c3c(-c4ccc(F)cc4)nc(C4CC4)n3C3CCN(Cc4ccno4)CC3)ccc2n1)c1ccnc(F)c1 [Compound 133, N-(6-(2-cyclopropyl-4-(4-fluorophenyl)-1-(1-(isoxazol-5-ylmethyl)piperidin-4-yl)-1H-imidazol-5-yl)imidazo [1,2-b]pyridazin-2-yl)-2-fluoroisonicotinamide]",IC50,CK1δ,0.907 nM
same,IC50,CK1ε,13.1 nM
CC(C)(C)c1cc(Cn2cnc(-c3ccc(F)cc3)c2-c2ccc3nc(NC(=O)c4ccnc(F)c4)cn3n2)n[nH]1 [Compound 264],IC50,CK1δ,41.5 nM
same,IC50,CK1ε,156 nM
"O=C(Nc1cn2nc(-c3c(-c4ccc(F)cc4)ncn3C3CCN(C(=O)CC(F)(F)F)CC3)ccc2n1)c1ccnc(F)c1 [Compound 42, 2-fluoro-N-(6-(4-(4-fluorophenyl)-1-(1-(3,3,3-trifluoropropanoyl)piperidin-4-yl)-1H-imidazol-5-yl)imidazo[1,2-b]pyridazin-2-yl)isonicotinamide]",IC50,CK1δ,2.79 nM
same,IC50,CK1ε,2.93 nM
"O=C(Nc1cn2nc(-c3c(-c4ccc(F)cc4)ncn3C3CCN(C(=O)c4ccc(F)cc4)CC3)ccc2n1)c1ccnc(F)c1 [Compound 53, 2-fluoro-N-(6-(1-(1-(4-fluorobenzoyl)piperidin-4-yl)-4-(4-fluorophenyl)-1H-imidazol-5-yl)imidazo[1,2-b]pyridazin-2-yl)isonicotinamide]",IC50,CK1δ,0.191 nM
same,IC50,CK1ε,1.56 nM
"O=C(CN1CCOCC1)Nc1cn2nc(-c3c(-c4ccc(F)cc4)nc4ccccn34)ccc2n1 [Compound 221, N-(6-(2-(4-fluorophenyl)imidazo[1,2-a]pyridin-3-yl)imidazo[1,2-b]pyridazin-2-yl)-2-morpholinoacetamide]",IC50,CK1δ,4.06 nM
same,IC50,CK1ε,42.2 nM
"Cc1noc(C)c1C(=O)N1CCC(n2cnc(-c3ccc(F)cc3)c2-c2ccc3nc(NC(=O)c4ccnc(F)c4)cn3n2)CC1 [Compound 57, N-(6-(1-(1-(3,5-dimethylisoxazole-4-carbonyl)piperidin-4-yl)-4-(4-fluorophenyl)-1H-imidazol-5-yl)imidazo[1,2-b]pyridazin-2-yl)-2-fluoroisonicotinamide]",IC50,CK1δ,0.321 nM
same,IC50,CK1ε,3.42 nM
"Cc1nc(-c2ccc(Cl)cc2)c(-c2ccc3nc(NC(=O)c4ccnc(F)c4)cn3n2)n1CCF [Compound 293, N-(6-(4-(4-chlorophenyl)-1-(2-fluoroethyl)-2-methyl-1H-imidazol-5-yl)imidazo[1,2-b]pyridazin-2-yl)-2-fluoroisonicotinamide]",IC50,CK1δ,0.109 nM
same,IC50,CK1ε,1.28 nM
"Cc1n[nH]cc1C(=O)Nc1cn2nc(-c3c(-c4ccc(F)cc4)nc(C)n3C)ccc2n1 [Compound 377, N-(6-(4-(4-fluorophenyl)-1,2-dimethyl-1H-imidazol-5-yl)imidazo[1,2-b]pyridazin-2-yl)-3-methyl-1H-pyrazole-4-carboxamide]",IC50,CK1δ,0.656 nM
same,IC50,CK1ε,4.04 nM
"CC(C)(C)COC(=O)N1CCC(n2cnc(-c3ccc(F)cc3)c2-c2ccc3nc(NC(=O)c4ccnc(F)c4)cn3n2)CC1 [Compound 75, neopentyl 4-(5-(2-(2-fluoroisonicotinamido)imidazo[1,2-b]pyridazin-6-yl)-4-(4-fluorophenyl)-1H-imidazol-1-yl)piperidine-1-carboxylate]",IC50,CK1δ,1.4 nM
same,IC50,CK1ε,3.49 nM
"O=C(Nc1cn2nc(-c3c(-c4ccc(F)cc4)ncn3C3CCNCC3)ccc2n1)c1ccnc(N2CCOCC2)c1 [Compound 106, N-(6-(4-(4-fluorophenyl)-1-(piperidin-4-yl)-1H-imidazol-5-yl)imidazo[1,2-b]pyridazin-2-yl)-2-morpholinoisonicotinamide]",IC50,CK1δ,0.732 nM
same,IC50,CK1ε,3.12 nM
"Cc1nc(-c2ccc(F)cc2)c(-c2ccc3nc(NC(=O)c4ccc(O)nc4)cn3n2)n1C [Compound 322, N-(6-(4-(4-fluorophenyl)-1,2-dimethyl-1H-imidazol-5-yl)imidazo[1,2-b]pyridazin-2-yl)-6-hydroxynicotinamide]",IC50,CK1δ,0.473 nM
same,IC50,CK1ε,4.76 nM
"O=C(Nc1cn2nc(-c3c(-c4ccc(F)cc4)nc(C4CC4)n3C3CCN(Cc4ccncc4)CC3)ccc2n1)c1ccnc(F)c1 [Compound 131, N-(6-(2-cyclopropyl-4-(4-fluorophenyl)-1-(1-(pyridin-4-ylmethyl)piperidin-4-yl)-1H-imidazol-5-yl)imidazo [1,2-b]pyridazin-2-yl)-2-fluoroisonicotinamide]",IC50,CK1δ,1.97 nM
same,IC50,CK1ε,20.7 nM
"CN1CCC(C(=O)Nc2cn3nc(-c4c(-c5ccc(F)cc5)nc5ccccn45)ccc3n2)CC1 [Compound 216, N-(6-(2-(4-fluorophenyl)imidazo[1,2-a]pyridin-3-yl)imidazo[1,2-b]pyridazin-2-yl)-1-methylpiperidine-4-carboxamide]",IC50,CK1δ,2.95 nM
same,IC50,CK1ε,26.7 nM
"CC(C)(C)C(=O)N1CCC(n2cnc(-c3ccc(F)cc3)c2-c2ccc3nc(NC(=O)c4ccnc(F)c4)cn3n2)CC1 [Compound 54, 2-fluoro-N-(6-(4-(4-fluorophenyl)-1-(1-pivaloylpiperidin-4-yl)-1H-imidazol-5-yl)imidazo[1,2-b]pyridazin-2-yl)isonicotinamide]",IC50,CK1δ,0.446 nM
same,IC50,CK1ε,3.09 nM
"Cc1cc(C(=O)Nc2cn3nc(-c4c(-c5ccc(F)cc5)nc5ccccn45)ccc3n2)on1 [Compound 179, N-(6-(2-(4-fluorophenyl)imidazo[1,2-a]pyridin-3-yl)imidazo[1,2-b]pyridazin-2-yl)-3-methyl-5-isoxazolecarboxamide]",IC50,CK1δ,0.206 nM
same,IC50,CK1ε,2.93 nM
